Assay results taken from ChEMBL document CHEMBL1132533, “Synthesis and evaluation of hydroxyproline-derived isoprenyltransferase inhibitors” (Bioorg Med Chem Lett, 1999).

Assays:
[1] = target: Protein farnesyltransferase (Mus musculus, UniProt Q61239+Q8K2I1); assay: Inhibitory concentration against Farnesyltransferase for Farnesylation of H-ras protein InNIH 3T3 cells transformed with activated H-ras; assay type: cell-based, NIH3T3
[2] = In vitro inhibitory activity against Geranylgeranyl transferase in the geranylgeranylation of Rap1A protein protein in NIH 3T3 cells transformed with activated H-ras; assay type: cell-based, Mus musculus; conditions: nih3t3
[3] = target: Geranylgeranyl transferase type I (Bos taurus, UniProt P29702+Q5EAD5); assay: In vitro inhibitory activity against Geranylgeranyl transferase in the geranylgeranylation of H-ras-CAIL protein; assay type: protein-complex assay
[4] = target: Protein farnesyltransferase (Bos taurus, UniProt P29702+P49355); assay: Inhibitory concentration was evaluated against Farnesyltransferase in the farnesylation of H-ras protein; assay type: protein-complex assay

| SMILES | IC50 [1] [nM] | IC50 [2] [nM] | IC50 [3] [nM] | IC50 [4] [nM] |
| --- | --- | --- | --- | --- |
| COC(=O)[C@H](CCSC)NC(=O)[C@H]1C[C@H](Oc2ccccc2)CN1C/C=C/[C@@H](N)CS | > 50000 | – | – | – |
| COC(=O)[C@H](CCSC)NC(=O)[C@@H]1C[C@H](Oc2cccc3c2CCCC3)CN1C/C=C/C(N)CS (some centres not stated) | > 10000 | 3100 | – | – |
| COC(=O)[C@H](CCSC)NC(=O)[C@@H]1C[C@H](Oc2ccc(C(C)C)cc2)CN1C/C=C/[C@@H](N)CS | 3000 | 390 | – | – |
| CSCC[C@H](NC(=O)[C@@H]1C[C@@H](Oc2ccccc2)CN1C/C=C/[C@@H](N)CS)C(=O)O | – | – | 8000 | 4000 |
| CSCC[C@H](NC(=O)[C@@H]1C[C@H](Oc2ccccc2)CN1C(=O)CCC[C@@H](N)CS)C(=O)O | – | – | 100 | 2 |
| CCCc1ccccc1O[C@H]1C[C@@H](C(=O)N[C@@H](CCSC)C(=O)O)N(C/C=C/[C@@H](N)CS)C1 | – | – | 170 | 210 |
| CSCC[C@H](NC(=O)[C@@H]1C[C@H](Oc2ccccc2)CN1CCCC[C@@H](N)CS)C(=O)O | – | – | 3300 | 20 |
| CSCC[C@H](NC(=O)[C@@H]1C[C@H](Oc2ccc(C(F)(F)F)cc2)CN1C/C=C/[C@@H](N)CS)C(=O)O | – | – | 110 | 110 |
| COc1ccc(O[C@H]2CC(C(=O)NC(CCSC)C(=O)O)N(C/C=C/[C@@H](N)CS)C2)cc1OC (single isomer, unassigned) | – | – | 67000 | 450 |
| CSCCC(NC(=O)[C@@H]1C[C@H](Oc2ccccc2)CN1C/C=C/[C@@H](N)CS)C(=O)O (single isomer, unassigned) | – | – | 53 | 57 |
| CSCC[C@H](NC(=O)[C@@H]1C[C@H](Oc2ccccc2)CN1C[C@H](/C=C/[C@@H](N)CS)C(C)C)C(=O)O | – | – | 150 | 17 |
| COC(=O)[C@@H](CCSC)NC(=O)[C@@H]1C[C@H](Oc2ccccc2)CN1C/C=C/[C@@H](N)CS | 5300 | 21900 | – | – |
| CSCC[C@H](NC(=O)[C@@H]1C[C@H](Oc2cccc3ccccc23)CN1C/C=C/C(N)CS)C(=O)O (some centres not stated) | – | – | 200 | 100 |
| CSCC[C@H](NC(=O)[C@@H]1C[C@H](Oc2ccccc2)CN1C(=O)[C@H](/C=C/[C@@H](N)CS)C(C)C)C(=O)O | – | – | 11 | 18 |
| COC(=O)[C@H](CCSC)NC(=O)[C@@H]1C[C@H](Oc2ccccc2)CN1CC/C=C/[C@@H](N)CS | 490 | > 50000 | – | – |
| CCCCc1ccc(O[C@H]2C[C@@H](C(=O)N[C@@H](CCSC)C(=O)OC)N(C/C=C/[C@@H](N)CS)C2)cc1 | 3200 | 3100 | – | – |
| COC(=O)[C@H](CCSC)NC(=O)[C@@H]1C[C@H](Oc2ccc(C(F)(F)F)cc2)CN1C/C=C/[C@@H](N)CS | > 50000 | > 50000 | – | – |
| CSCC[C@H](NC(=O)[C@@H]1C[C@H](Oc2ccc(C(C)C)cc2)CN1C/C=C/[C@@H](N)CS)C(=O)O | – | – | 210 | 82 |
| COC(=O)[C@H](CCSC)NC(=O)[C@@H]1C[C@H](Oc2ccccc2)CN1C(=O)CCC[C@@H](N)CS | 2000 | > 50000 | – | – |
| CSCC[C@@H](NC(=O)[C@H]1C[C@H](Oc2ccccc2)CN1C/C=C/[C@@H](N)CS)C(=O)O | – | – | 11000 | 3300 |
| CSCC[C@H](NC(=O)[C@@H]1C[C@H](Oc2ccccc2)CN1CC/C=C/[C@@H](N)CS)C(=O)O | – | – | 570 | 20 |

The next lines start with the values.

| IC50 [1] [nM] | IC50 [2] [nM] | IC50 [3] [nM] | IC50 [4] [nM] | SMILES |
| --- | --- | --- | --- | --- |
| 350 | > 50000 | – | – | COC(=O)[C@H](CCSC)NC(=O)[C@@H]1C[C@H](Oc2ccccc2)CN1CCCC[C@@H](N)CS |
| 370 | > 100000 | 1 | 26 | CSCC[C@H](NC(=O)[C@H](/C=C\[C@@H](/C=C/[C@@H](N)CS)C(C)C)Cc1ccccc1)C(=O)O |
| > 10000 | > 10000 | – | – | CCCc1ccccc1O[C@H]1C[C@H](C(=O)N[C@H](CCSC)C(=O)OC)N(C/C=C/[C@@H](N)CS)C1 |
| – | – | 250 | 35 | CSCC[C@H](NC(=O)[C@@H]1C[C@H](Oc2ccc(-c3ccccc3)cc2)CN1C/C=C/[C@@H](N)CS)C(=O)O |
| > 50000 | > 50000 | – | – | COC(=O)[C@H](CCSC)NC(=O)[C@@H]1C[C@@H](Oc2ccccc2)CN1C/C=C/[C@@H](N)CS |
| 840 | > 50000 | – | – | COC(=O)[C@H](CCSC)NC(=O)[C@@H]1C[C@H](Oc2ccccc2)CN1C(=O)[C@H](/C=C/[C@@H](N)CS)C(C)C |
| > 50000 | > 50000 | – | – | COC(=O)[C@H](CCSC)NC(=O)[C@@H]1C[C@H](Oc2ccc(OC)c(OC)c2)CN1C/C=C/[C@@H](N)CS |
| 3300 | 3200 | – | – | COC(=O)[C@H](CCSC)NC(=O)[C@@H]1C[C@H](Oc2ccc(-c3ccccc3)cc2)CN1C/C=C/[C@@H](N)CS |
| 40 | > 25000 | – | – | COC(=O)[C@H](CCSC)NC(=O)[C@@H]1C[C@H](Oc2ccccc2)CN1C[C@H](/C=C/[C@@H](N)CS)C(C)C |
| 22500 | > 50000 | – | – | COC(=O)[C@H](CCSC)NC(=O)[C@@H]1C[C@H](Oc2cccc3ccccc23)CN1C/C=C/C(N)CS (some centres not stated) |
| – | – | 89 | 47 | CSCC[C@H](NC(=O)[C@@H]1C[C@H](Oc2cccc3c2CCCC3)CN1C/C=C/[C@@H](N)CS)C(=O)O |
| – | – | 180 | 87 | CCCCc1ccc(O[C@H]2C[C@@H](C(=O)N[C@@H](CCSC)C(=O)O)N(C/C=C/[C@@H](N)CS)C2)cc1 |
